Measurements reported in patent US9981959B2, “Thiazolyl and oxazolyl urea, thiourea, guanidine and cyanoguanidine compounds as TrkA kinase inhibitors” (Array BioPharma Inc., priority 2012, dated 2018).

What was measured:
CDK3/cyclinE = biological target: T1, CDK3/cyclinE (Homo sapiens, UniProt Q00526); experiment: KinaseProfiler off-target kinase profiling; type: biochemical; conditions: 10 μM, ATP near Km
T1 construct: purchased Millipore, Inc. (KinaseProfiler service)
Protocol: (§1) A representative compound of the invention (Example 2) was tested for off-target kinase activity at a concentration of 10 μM by Millipore, Inc. in their KinaseProfiler™ service against all the kinases available in their full kinase panel. The compound was run in duplicate at a concentration of ATP near the Km for each individual kinase according to Millipore's specifications. The results are shown in Table B. Data are reported as percent of control (POC) and are the average of the two replicates.

CDK5/p25 = biological target: T2, CDK5/p25 (Homo sapiens, UniProt Q00535); experiment: KinaseProfiler off-target kinase profiling; type: biochemical; conditions: 10 μM, ATP near Km
T2 construct: purchased Millipore, Inc. (KinaseProfiler service)
Protocol: as §1

CK1gamma1 = biological target: T3, CK1gamma1 (Homo sapiens, UniProt Q9HCP0); experiment: KinaseProfiler off-target kinase profiling; type: biochemical; conditions: 10 μM, ATP near Km
T3 construct: purchased Millipore, Inc. (KinaseProfiler service)
Protocol: as §1

CLK3 = biological target: T4, CLK3 (Homo sapiens, UniProt P49761); experiment: KinaseProfiler off-target kinase profiling; type: biochemical; conditions: 10 μM, ATP near Km
T4 construct: purchased Millipore, Inc. (KinaseProfiler service)
Protocol: as §1

CSK = biological target: T5, CSK (Homo sapiens, UniProt P41240); experiment: KinaseProfiler off-target kinase profiling; type: biochemical; conditions: 10 μM, ATP near Km
T5 construct: purchased Millipore, Inc. (KinaseProfiler service)
Protocol: as §1

EphA1 = biological target: T6, EphA1 (Homo sapiens, UniProt P21709); experiment: KinaseProfiler off-target kinase profiling; type: biochemical; conditions: 10 μM, ATP near Km
T6 construct: purchased Millipore, Inc. (KinaseProfiler service)
Protocol: as §1

EphB1 = biological target: T7, EphB1 (Homo sapiens, UniProt P54762); experiment: KinaseProfiler off-target kinase profiling; type: biochemical; conditions: 10 μM, ATP near Km
T7 construct: purchased Millipore, Inc. (KinaseProfiler service)
Protocol: as §1

EphB3 = biological target: T8, EphB3 (Homo sapiens, UniProt P54753); experiment: KinaseProfiler off-target kinase profiling; type: biochemical; conditions: 10 μM, ATP near Km
T8 construct: purchased Millipore, Inc. (KinaseProfiler service)
Protocol: as §1

FGFR4 = biological target: T9, FGFR4 (Homo sapiens, UniProt P22455); experiment: KinaseProfiler off-target kinase profiling; type: biochemical; conditions: 10 μM, ATP near Km
T9 construct: purchased Millipore, Inc. (KinaseProfiler service)
Protocol: as §1

Fes = biological target: T10, Fes (Homo sapiens, UniProt P07332); experiment: KinaseProfiler off-target kinase profiling; type: biochemical; conditions: 10 μM, ATP near Km
T10 construct: purchased Millipore, Inc. (KinaseProfiler service)
Protocol: as §1

Fms = biological target: T11, Fms (Homo sapiens, UniProt P07333); experiment: KinaseProfiler off-target kinase profiling; type: biochemical; conditions: 10 μM, ATP near Km
T11 construct: purchased Millipore, Inc. (KinaseProfiler service)
Protocol: as §1

IGF-1R Activated = biological target: T12, IGF-1R Activated (Homo sapiens, UniProt P08069); experiment: KinaseProfiler off-target kinase profiling; type: biochemical; conditions: 10 μM, ATP near Km
T12 construct: purchased Millipore, Inc. (KinaseProfiler service)
Protocol: as §1

IRAK1 = biological target: T13, IRAK1 (Homo sapiens, UniProt P51617); experiment: KinaseProfiler off-target kinase profiling; type: biochemical; conditions: 10 μM, ATP near Km
T13 construct: purchased Millipore, Inc. (KinaseProfiler service)
Protocol: as §1

ITK = biological target: T14, ITK (Homo sapiens, UniProt Q08881); experiment: KinaseProfiler off-target kinase profiling; type: biochemical; conditions: 10 μM, ATP near Km
T14 construct: purchased Millipore, Inc. (KinaseProfiler service)
Protocol: as §1

MAP3K5 = biological target: T15, MAP3K5 (Homo sapiens, UniProt Q99683); experiment: KinaseProfiler off-target kinase profiling; type: biochemical; conditions: 10 μM, ATP near Km
T15 construct: purchased Millipore, Inc. (KinaseProfiler service)
Protocol: as §1

MSK2 = biological target: T16, MSK2 (Homo sapiens, UniProt O75676); experiment: KinaseProfiler off-target kinase profiling; type: biochemical; conditions: 10 μM, ATP near Km
T16 construct: purchased Millipore, Inc. (KinaseProfiler service)
Protocol: as §1

MuSK = biological target: T17, MuSK (Homo sapiens, UniProt O15146); experiment: KinaseProfiler off-target kinase profiling; type: biochemical; conditions: 10 μM, ATP near Km
T17 construct: purchased Millipore, Inc. (KinaseProfiler service)
Protocol: as §1

NEK6 = biological target: T18, NEK6 (Homo sapiens, UniProt Q9HC98); experiment: KinaseProfiler off-target kinase profiling; type: biochemical; conditions: 10 μM, ATP near Km
T18 construct: purchased Millipore, Inc. (KinaseProfiler service)
Protocol: as §1

NEK7 = biological target: T19, NEK7 (Homo sapiens, UniProt Q8TDX7); experiment: KinaseProfiler off-target kinase profiling; type: biochemical; conditions: 10 μM, ATP near Km
T19 construct: purchased Millipore, Inc. (KinaseProfiler service)
Protocol: as §1

PKCiota = biological target: T20, PKCiota (Homo sapiens, UniProt P41743); experiment: KinaseProfiler off-target kinase profiling; type: biochemical; conditions: 10 μM, ATP near Km
T20 construct: purchased Millipore, Inc. (KinaseProfiler service)
Protocol: as §1

PrKX = biological target: T21, PrKX (Homo sapiens, UniProt P51817); experiment: KinaseProfiler off-target kinase profiling; type: biochemical; conditions: 10 μM, ATP near Km
T21 construct: purchased Millipore, Inc. (KinaseProfiler service)
Protocol: as §1

Rsk3 = biological target: T22, Rsk3 (Homo sapiens, UniProt Q15349); experiment: KinaseProfiler off-target kinase profiling; type: biochemical; conditions: 10 μM, ATP near Km
T22 construct: purchased Millipore, Inc. (KinaseProfiler service)
Protocol: as §1

SGK3 = biological target: T23, SGK3 (Homo sapiens, UniProt Q96BR1); experiment: KinaseProfiler off-target kinase profiling; type: biochemical; conditions: 10 μM, ATP near Km
T23 construct: purchased Millipore, Inc. (KinaseProfiler service)
Protocol: as §1

SIK = biological target: T24, SIK (Homo sapiens, UniProt P57059); experiment: KinaseProfiler off-target kinase profiling; type: biochemical; conditions: 10 μM, ATP near Km
T24 construct: purchased Millipore, Inc. (KinaseProfiler service)
Protocol: as §1

TAO3 = biological target: T25, TAO3 (Homo sapiens, UniProt Q9H2K8); experiment: KinaseProfiler off-target kinase profiling; type: biochemical; conditions: 10 μM, ATP near Km
T25 construct: purchased Millipore, Inc. (KinaseProfiler service)
Protocol: as §1

Tie2 = biological target: T26, Tie2 (Homo sapiens, UniProt Q02763); experiment: KinaseProfiler off-target kinase profiling; type: biochemical; conditions: 10 μM, ATP near Km
T26 construct: purchased Millipore, Inc. (KinaseProfiler service)
Protocol: as §1

WNK3 = biological target: T27, WNK3 (Homo sapiens, UniProt Q9BYP7); experiment: KinaseProfiler off-target kinase profiling; type: biochemical; conditions: 10 μM, ATP near Km
T27 construct: purchased Millipore, Inc. (KinaseProfiler service)
Protocol: as §1

TrkA [1] = biological target: T28, TrkA (Homo sapiens, UniProt P04629); experiment: KinaseProfiler off-target kinase profiling; type: biochemical; parameters: purchased Millipore, Inc. (KinaseProfiler service); conditions: 10 μM, ATP near Km
Protocol: as §1, with “specifications.” for “specifications. The results are shown in Table B. Data are reported as percent of control (POC) and are the average of the two replicates.”

TrkA [2] = biological target: T28, TrkA; experiment: TrkA LanthaScreen Eu Kinase Binding Assay; parameters: 6HIS tagged cytoplasmic domain from Invitrogen, Cat. No. PV3144; purchased Invitrogen PV3144; conditions: averaged IC50; TR-FRET binding, 60 min, 22° C.; read-out: TrkA enzyme IC50
Protocol: TrkA binding activity was determined in a TrkA LanthaScreen™ Eu Kinase Binding Assay. 5 nM His-tagged recombinant human TrkA (6HIS tagged cytoplasmic domain from Invitrogen, Cat. No. PV3144) was incubated with 4 nM Alexa-Fluor® Tracer 236 (Invitrogen Cat. No. PV5592), 2 nM biotinylated anti-His (Invitrogen Cat. No. PV6090), and 2 nM europium-labeled Streptavidin (Invitrogen Cat. No. PV5899), in buffer (25 mM MOPS, pH 7.5, 5 mM MgCl2, 0.005% Triton X-100). Three fold serial dilutions of compounds of the invention in DMSO were added to a final percentage of 2% DMSO. After 60-minute incubation at 22° C., the reaction was measured using the EnVision mutlimode plate reader (PerkinElmer) via TR-FRET dual wavelength detection at […]. The percent of control was calculated using a ratiometric emission factor. The IC50 values were determined by fitting a four parameter model to the percent of control data.
Table A provides averaged IC50 values for compounds of the invention when tested in the assay of Example A, where A represents an averaged IC50 value <100 nM; and B represents an averaged IC50 value from 100 to 1,000 nM.

T10 sequence (P07332 whole entry): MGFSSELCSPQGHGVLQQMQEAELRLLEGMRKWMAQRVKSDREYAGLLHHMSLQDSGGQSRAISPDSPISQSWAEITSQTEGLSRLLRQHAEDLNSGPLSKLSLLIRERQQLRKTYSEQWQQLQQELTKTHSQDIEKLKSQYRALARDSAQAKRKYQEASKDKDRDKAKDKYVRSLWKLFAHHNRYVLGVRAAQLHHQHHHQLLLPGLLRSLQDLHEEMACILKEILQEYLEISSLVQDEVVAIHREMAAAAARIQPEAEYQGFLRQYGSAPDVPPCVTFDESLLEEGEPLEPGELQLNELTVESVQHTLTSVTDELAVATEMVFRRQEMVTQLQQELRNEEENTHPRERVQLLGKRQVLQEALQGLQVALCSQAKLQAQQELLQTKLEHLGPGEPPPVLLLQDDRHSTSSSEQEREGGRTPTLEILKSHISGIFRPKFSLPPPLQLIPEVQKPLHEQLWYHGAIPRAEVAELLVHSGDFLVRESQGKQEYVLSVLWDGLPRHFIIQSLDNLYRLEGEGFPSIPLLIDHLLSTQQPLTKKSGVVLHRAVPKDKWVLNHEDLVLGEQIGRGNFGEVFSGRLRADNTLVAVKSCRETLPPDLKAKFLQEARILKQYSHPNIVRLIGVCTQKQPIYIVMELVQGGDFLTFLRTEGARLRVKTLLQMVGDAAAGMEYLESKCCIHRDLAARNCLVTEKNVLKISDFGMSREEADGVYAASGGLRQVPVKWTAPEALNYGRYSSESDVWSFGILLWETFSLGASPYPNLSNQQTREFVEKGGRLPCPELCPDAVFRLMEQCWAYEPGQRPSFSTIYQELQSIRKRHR
T15 sequence (Q99683 whole entry): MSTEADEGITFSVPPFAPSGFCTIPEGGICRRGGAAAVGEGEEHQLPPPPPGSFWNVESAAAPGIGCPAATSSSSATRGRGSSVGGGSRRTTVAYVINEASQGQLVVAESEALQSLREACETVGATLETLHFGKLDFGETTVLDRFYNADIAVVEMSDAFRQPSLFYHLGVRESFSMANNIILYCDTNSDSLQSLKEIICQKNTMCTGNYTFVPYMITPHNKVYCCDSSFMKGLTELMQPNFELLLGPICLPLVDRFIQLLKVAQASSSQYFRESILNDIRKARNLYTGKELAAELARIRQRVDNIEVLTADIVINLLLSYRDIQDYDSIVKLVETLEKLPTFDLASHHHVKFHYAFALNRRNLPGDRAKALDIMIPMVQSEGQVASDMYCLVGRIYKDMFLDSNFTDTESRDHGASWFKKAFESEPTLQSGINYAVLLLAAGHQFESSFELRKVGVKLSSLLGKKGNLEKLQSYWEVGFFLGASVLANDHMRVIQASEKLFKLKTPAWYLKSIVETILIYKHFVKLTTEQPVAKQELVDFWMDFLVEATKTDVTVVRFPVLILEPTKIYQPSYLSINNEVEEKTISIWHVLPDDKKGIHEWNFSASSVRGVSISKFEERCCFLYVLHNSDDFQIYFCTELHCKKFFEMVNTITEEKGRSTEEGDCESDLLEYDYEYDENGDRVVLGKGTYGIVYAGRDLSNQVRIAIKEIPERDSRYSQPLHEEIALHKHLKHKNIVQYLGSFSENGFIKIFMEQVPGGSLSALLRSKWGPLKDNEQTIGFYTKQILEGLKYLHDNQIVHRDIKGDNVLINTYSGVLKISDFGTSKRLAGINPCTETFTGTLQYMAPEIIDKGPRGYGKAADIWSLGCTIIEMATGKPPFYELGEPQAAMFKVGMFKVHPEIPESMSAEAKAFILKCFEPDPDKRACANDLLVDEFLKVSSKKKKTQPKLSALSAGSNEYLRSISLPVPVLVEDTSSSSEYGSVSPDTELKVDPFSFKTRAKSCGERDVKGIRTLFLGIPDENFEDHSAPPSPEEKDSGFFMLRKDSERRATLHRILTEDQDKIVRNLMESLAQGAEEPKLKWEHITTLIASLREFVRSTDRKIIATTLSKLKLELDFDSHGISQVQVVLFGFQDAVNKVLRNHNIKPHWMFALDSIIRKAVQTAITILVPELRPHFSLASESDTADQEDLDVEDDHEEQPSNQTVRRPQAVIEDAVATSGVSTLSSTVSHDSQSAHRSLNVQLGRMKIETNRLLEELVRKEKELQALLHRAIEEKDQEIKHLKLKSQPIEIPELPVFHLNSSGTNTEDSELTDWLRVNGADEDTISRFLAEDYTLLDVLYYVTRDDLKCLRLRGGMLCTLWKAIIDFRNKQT
T11 sequence (P07333 20-972): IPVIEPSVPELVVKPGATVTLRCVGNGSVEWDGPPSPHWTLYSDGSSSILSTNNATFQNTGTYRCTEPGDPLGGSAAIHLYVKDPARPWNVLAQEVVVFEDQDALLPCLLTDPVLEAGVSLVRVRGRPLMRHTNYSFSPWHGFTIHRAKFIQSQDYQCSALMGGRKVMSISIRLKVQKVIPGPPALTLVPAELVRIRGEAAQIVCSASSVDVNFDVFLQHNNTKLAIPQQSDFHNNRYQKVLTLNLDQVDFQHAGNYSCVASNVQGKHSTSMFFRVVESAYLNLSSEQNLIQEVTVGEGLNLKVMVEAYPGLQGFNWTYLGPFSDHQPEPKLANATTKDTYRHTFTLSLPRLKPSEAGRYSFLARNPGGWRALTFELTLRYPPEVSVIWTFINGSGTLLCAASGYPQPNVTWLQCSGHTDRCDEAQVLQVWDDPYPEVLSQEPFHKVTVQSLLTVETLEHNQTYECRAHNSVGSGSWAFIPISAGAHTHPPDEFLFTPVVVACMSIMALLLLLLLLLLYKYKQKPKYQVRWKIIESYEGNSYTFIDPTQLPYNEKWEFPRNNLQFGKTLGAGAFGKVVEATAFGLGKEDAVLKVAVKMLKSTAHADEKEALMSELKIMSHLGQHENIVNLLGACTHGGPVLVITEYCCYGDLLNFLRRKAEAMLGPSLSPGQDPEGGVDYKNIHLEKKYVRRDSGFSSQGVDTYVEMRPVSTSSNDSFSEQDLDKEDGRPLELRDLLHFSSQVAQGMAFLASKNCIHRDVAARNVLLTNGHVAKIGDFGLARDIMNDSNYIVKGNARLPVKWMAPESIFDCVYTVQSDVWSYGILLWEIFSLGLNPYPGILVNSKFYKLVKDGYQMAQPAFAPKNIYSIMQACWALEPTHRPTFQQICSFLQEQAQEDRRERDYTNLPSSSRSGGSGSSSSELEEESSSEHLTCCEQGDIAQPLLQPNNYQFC
T1 sequence (Q00526 whole entry): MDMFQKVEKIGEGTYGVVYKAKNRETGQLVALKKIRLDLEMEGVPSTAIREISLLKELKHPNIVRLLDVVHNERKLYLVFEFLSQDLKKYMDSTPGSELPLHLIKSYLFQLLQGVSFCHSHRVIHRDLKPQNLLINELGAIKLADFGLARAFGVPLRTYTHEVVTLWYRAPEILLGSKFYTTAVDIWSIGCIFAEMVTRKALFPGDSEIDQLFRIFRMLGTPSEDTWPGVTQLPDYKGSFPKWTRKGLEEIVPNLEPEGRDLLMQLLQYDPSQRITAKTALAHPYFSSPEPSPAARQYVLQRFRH
T1 sequence (P24864 whole entry partner): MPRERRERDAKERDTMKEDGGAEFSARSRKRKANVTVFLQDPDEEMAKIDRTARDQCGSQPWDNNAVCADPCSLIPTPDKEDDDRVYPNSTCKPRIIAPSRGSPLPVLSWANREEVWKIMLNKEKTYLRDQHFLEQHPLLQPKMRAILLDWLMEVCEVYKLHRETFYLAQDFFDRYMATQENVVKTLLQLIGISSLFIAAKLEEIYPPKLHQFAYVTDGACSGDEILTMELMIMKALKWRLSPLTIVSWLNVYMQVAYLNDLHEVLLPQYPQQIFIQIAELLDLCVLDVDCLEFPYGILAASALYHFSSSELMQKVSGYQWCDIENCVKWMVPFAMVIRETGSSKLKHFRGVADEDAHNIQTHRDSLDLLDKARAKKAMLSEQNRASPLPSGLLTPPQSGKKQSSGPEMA
T7 sequence (P54762 18-984): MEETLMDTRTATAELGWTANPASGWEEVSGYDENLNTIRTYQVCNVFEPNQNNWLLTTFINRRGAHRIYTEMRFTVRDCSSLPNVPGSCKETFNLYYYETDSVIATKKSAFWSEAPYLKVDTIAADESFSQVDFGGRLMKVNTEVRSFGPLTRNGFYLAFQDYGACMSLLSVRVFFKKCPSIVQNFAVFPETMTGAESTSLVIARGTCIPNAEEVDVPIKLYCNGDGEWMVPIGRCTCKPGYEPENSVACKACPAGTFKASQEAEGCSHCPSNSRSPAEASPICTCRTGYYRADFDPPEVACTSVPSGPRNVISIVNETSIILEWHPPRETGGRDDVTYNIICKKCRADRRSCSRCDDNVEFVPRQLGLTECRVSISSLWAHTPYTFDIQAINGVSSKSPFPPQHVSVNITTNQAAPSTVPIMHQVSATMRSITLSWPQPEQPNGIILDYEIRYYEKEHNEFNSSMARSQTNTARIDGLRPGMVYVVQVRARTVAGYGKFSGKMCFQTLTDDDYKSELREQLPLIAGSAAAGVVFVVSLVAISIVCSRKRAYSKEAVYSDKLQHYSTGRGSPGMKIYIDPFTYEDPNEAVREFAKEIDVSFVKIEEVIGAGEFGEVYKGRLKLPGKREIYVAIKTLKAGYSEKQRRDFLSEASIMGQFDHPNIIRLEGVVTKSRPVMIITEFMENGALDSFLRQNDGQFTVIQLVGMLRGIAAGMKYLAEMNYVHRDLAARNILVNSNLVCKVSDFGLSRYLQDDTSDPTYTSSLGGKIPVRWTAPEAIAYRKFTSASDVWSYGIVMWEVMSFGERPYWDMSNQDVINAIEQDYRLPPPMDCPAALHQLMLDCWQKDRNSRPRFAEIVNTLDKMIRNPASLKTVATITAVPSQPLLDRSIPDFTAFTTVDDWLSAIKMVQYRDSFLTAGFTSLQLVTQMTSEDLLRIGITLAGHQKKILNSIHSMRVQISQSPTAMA

Avg POC (CDK3/cyclinE): 105 POC
Avg POC (CDK5/p25): 104.5 POC
Avg POC (CK1gamma1): 104 POC
Avg POC (CLK3): 110.5 POC
Avg POC (CSK): 136 POC
Avg POC (EphA1): 81.5 POC
Avg POC (EphB1): 136 POC
Avg POC (EphB3): 72.5 POC
Avg POC (FGFR4): 141.5 POC
Avg POC (Fes): 121.5 POC
Avg POC (Fms): 89.5 POC
Avg POC (IGF-1R Activated): 97.5 POC
Avg POC (IRAK1): 107.5 POC
Avg POC (ITK): 125.5 POC
Avg POC (MAP3K5): 107.5 POC
Avg POC (MSK2): 136 POC
Avg POC (MuSK): 88 POC
Avg POC (NEK6): 117.5 POC
Avg POC (NEK7): 119.5 POC
Avg POC (PKCiota): 67 POC
Avg POC (PrKX): 122 POC
Avg POC (Rsk3): 99 POC
Avg POC (SGK3): 151 POC
Avg POC (SIK): 145 POC
Avg POC (TAO3): 94 POC
Avg POC (Tie2): 131.5 POC
Avg POC (WNK3): 112.5 POC
Avg POC (TrkA [1]): −1 POC
IC50 (TrkA [2]): < 100 nM
SMILES: Cc1c(-c2cnn(C)c2)nn(-c2ccccc2)c1NC(=O)Nc1sc(C(F)(F)F)nc1-c1ccccc1 [Example 2, 1-(1′,4-dimethyl-1-phenyl-1H,1′H-[3,4′-bipyrazol]-5-yl)-3-(4-phenyl-2-(trifluoromethyl)thiazol-5-yl)urea]
